Measurements from patent US20260297060A1, “COMPOUNDS FOR THE DEGRADATION OF MUTANT BRAF” (C4 THERAPEUTICS, INC., priority 2023, published 2026).

Legend:
A375 = A375 cell viability assay (Example 15); format: cell-based, human; conditions: for cytotoxicity (in words): A375 cells; for effect on cancer cell viability: human, a375 cells, 0.1 µM
Experimental: FIG. 83 is a line graph showing the results of Compound 26, Compound 26-NMe, Compound 141, and Compound 141-NMe in an A375 viability assay. The y-axis is viability in % and the x-axis is concentration (nM). The experiment was conducted as described in Example 15.
This robust degradation activity is surprising in view of the minimal inhibition-based activity of selected compounds. […] However, the degradation deficient versions of Compound 26 and Compound 141 (N-methyl analogs) had minimal effect on cell viability at a concentration of 100 nM (see FIG. 83 and Example 15).

A375 cells = assay: A375 Cell Viability Assay (CTGlo), Example 16; format: cell-based, human; conditions: 72 h, 10-point dose series, in words (FIG. 83)
Experimental: The effect of compounds of the invention on cell viability was assessed based on the quantification of ATP using the CellTiter-Glo® 2.0 (referred to here as CTGlo) Cell Viability Assay (Catalog No. G9243, Promega, Madison, WI, USA), which signals the presence of metabolically active cells.
A375 cells were obtained from ATCC (Catalog No. CRL-1619, Manassas, VA, USA) (also referred to here as A375.1) and were maintained in DMEM, (Corning, Catalog No. 10-017-CV, Glendale, AZ, USA) supplemented with 10% fetal bovine serum (FBS; Catalog No. 16000044, Gibco, Grand Island, NY, USA) at 37° C. in an atmosphere of 5% CO2 in air. The cells were routinely sub-cultured to maintain cell density between 3×10^5-1.5×10^6 cells/mL. […] An aliquot of cell suspension was diluted 2× with a 0.4% Trypan Blue solution (Catalog No. 15250061, ThermoFisher Scientific, Waltham, MA, USA) and cell count was determined. […]
Test compounds were prepared by dissolving neat compounds in dimethyl sulfoxide (DMSO; Catalog No. D8418, Sigma-Aldrich, Inc., St. Louis, MO, USA) to generate 10 mM stock solution and stored at −20° C. […] CellTiter-Glo® reagent was then added to the cells and luminescence signals were measured after 4 hours using an EnVision™ Multimode plate reader (Perkin Elmer, Santa Clara, CA). […]

Structure (SMILES) | cytotoxicity (in words) (A375) | effect on cancer cell viability (A375) [%] | impact on viability of A375 cells (A375 cells)
CCN(C)S(=O)(=O)Nc1ccc(F)c(Oc2ccc3ncn([C@H]4COC5(CCN(C6CC7(C6)CN(c6cc8c(cc6F)c(N6CCC(=O)NC6=O)nn8C)C7)CC5)C4)c(=O)c3c2)c1C#N [Compound 26, (3R)-3-[6-[2-cyano-3-[[ethyl(methyl)sulfamoyl]amino]-6-fluoro-phenoxy]-4-oxo-quinazolin-3-yl]-8-[2-[3-(2,4-dioxohexahydropyrimidin-1-yl)-5-fluoro-1-methyl-indazol-6-yl]-2-azaspiro[3.3]heptan-6-yl]-1-oxa-8-azaspiro[4.5]decane] | potent cytotoxic agents | ≥ 30 | significant impact on the viability of A375 cells
CCN(C)S(=O)(=O)Nc1ccc(F)c(Oc2ccc3ncn(C4CC5(CCN(C6CC7(C6)CN(c6cc8c(cc6F)c(N6CCC(=O)NC6=O)nn8C)C7)CC5)C4)c(=O)c3c2)c1C#N (stereo not drawn) [Compound 141, 6-[2-cyano-3-[[ethyl(methyl)sulfamoyl]amino]-6-fluoro-phenoxy]-3-[7-[2-[3-(2,4-dioxohexahydropyrimidin-1-yl)-5-fluoro-1-methyl-indazol-6-yl]-2-azaspiro[3.3]heptan-6-yl]-7-azaspiro[3.5]nonan-2-yl]-4-oxo-quinazoline] | potent cytotoxic agents | ≥ 30 | significant impact on the viability of A375 cells
